For test [1], the system named is panel of 57 patient-derived tumors and cancer cell lines. The test can be described thus: CFA panel of 57 patient-derived tumors and cancer cell lines. The test is classed as cell-based, human. The protocol:
(§1) CFA was performed by Charles River Laboratories (Freiburg, Germany) in 96-well plate format according to a modified two-layer soft agar assay. The origin of the tumor xenografts has been described (Fiebig et al. 1989, incorporated herein by reference). The list of tumors used in this study is detailed in Table 1.

The subject of test [2] is Leukemia (AML) LEXFAM HL-60. The test can be described thus: CFA, LEXFAM HL-60. The note with it: Cell line/CFA. Type of test: cell-based, human. On the procedure:
as §1

The test system of test [3] is Leukemia (ALL) LEXFAL MOLT-4. Nature of the test: CFA, LEXFAL MOLT-4. The test is classed as cell-based, human. The note with it: Cell line/CFA. On the procedure:
as §1

Test [4] has as its system Lung (SCLC) LXFS NCI-H727. Nature of the test: CFA, LXFS NCI-H727. The test is classed as cell-based, human. The note with it: Cell line/CFA. On the procedure: as §1
The subject of a further test is Lung (SCLC) LXFS 2156. The test can be described thus: CFA, LXFS 2156. The test is classed as cell-based, human. The note with it: PDX/CFA. On the procedure: as §1
Another test deals with Colon CXF HCT 116. Nature of the test: CFA, CXF HCT 116. Type of test: cell-based, human. The note with it: PDX/CFA. The protocol:
as §1

The next test concerns A431 cells. Nature of the test: Apoptosis: cleaved caspase-3 ELISA, A431 cells. Type of test: cell-based, human. The note with it: within 6 hours of treatment. On the procedure: Apoptosis induction was determined by semi-quantification of cytochrome C levels in the mitochondrial fraction analyzed by WB, following 2 hours of treatment with Formula C in A431 cells. Cleaved caspase-3 levels were analyzed following 6 hours of Formula C treatment in A431 cells, using PathScan® Cleaved Caspase-3 Sandwich ELISA kit (CST, Danvers, MA).
On the technique in general: ELISA stands for enzyme-linked immunosorbent assay.

The subject of test [5] is AK/cSCC mouse model of chronic UVB exposure. Nature of the test: AK/cSCC mouse model of chronic UVB exposure: histopathology and IHC of epidermis. The note with it: for HK2 protein levels in AK areas (IHC): 5% Formula C. The test is classed as in vivo. On the procedure: The formulation ingredients for vehicle, 2.5%, and 5% Formula C ointment consisted of: 32% Gelucire44/14® (Gattefosse, Saint-Priest, France), and 68% combined Labrasol® (Gattefosse, Saint-Priest, France) with corresponding amount of Formula C (w/w). New ointments were prepared every 2 weeks. The 40% topical solution was prepared just prior to use by mixing (w/w) 60% propylene glycol (Sigma, St. Louis, MO, USA) with 40% Formula C.
Histopathological analysis and IHC was performed according to standard protocols. Primary antibodies used: rabbit anti-HK1 and rabbit anti-HK2 (C35C4 and C64G5, CST, Danvers, MA), rabbit anti cleaved caspase 3 (PP229, Biocare Medical, Concord, CA), Secondary antibody was goat anti-Rabbit IgG(H+L) (474-1506, KPL, Gaithersburg, MD). Rabbit anti-CD3 (SP7), rabbit anti-F4/80 (SB-M3072, SB-M4152, Nordic Biosite, Taby, Sweden), mouse anti-Langerin/CD207 (DDX0361, Dendritics, Lyon, France). For these three primary antibodies, a polymer system was used as a secondary antibody (KDB-10046 and KDB-10007, Nordic Biosite, Taby, Sweden). Semi-quantitative analysis was done in a blinded manner by a single experienced pathologist scoring ×40 high power fields, 7 different fields per slide.
The effect of Formula C on cell proliferation and apoptosis was tested in an AK/cSCC mouse model of chronic UVB exposure. Forty-eight SKH-1 hairless female mice were chronically exposed to UVB radiation for 16 weeks. By that time, more than 60% of the animals had developed at least one SCC lesion. Three days after the final irradiation dose, the mice were randomly assigned to 1 of 4 treatment groups (N=12 mice/group) and a 50-day treatment phase started. Treatment groups included: vehicle, 2.5% or 5% Formula C ointment applied once-daily for 50 days, or 40% Formula C topical solution applied once-daily for the first 5 days of every three-week cycle (total of three treatment cycles).

In the next test the test system is Breast MAXF 857. The test can be described thus: CFA, MAXF 857. The test is classed as cell-based, human. The note with it: PDX/CFA. The protocol: as §1
For test [6], the system named is Lung (NSCLC, large) LXFL 1072. Nature of the test: CFA, LXFL 1072. Type of test: cell-based, human. The note with it: PDX/CFA. On the procedure: as §1
Test [7] has as its system Leukemia (BCLL) LEXFCM EM-2. Nature of the test: CFA, LEXFCM EM-2. The test is classed as cell-based, human. The note with it: Cell line/CFA. The protocol:
as §1

Entries after “also recorded” stand apart in the source; their conditions may differ.

With `CC/C=C\CC1C(=O)CCC1CC(=O)Oc1cccc2cccnc12` (stereo not shown) [Formula C], the “share of tested cancer types with strong anti-proliferation effect (IC50<2 uM)” value in test [1] was found to be 70%. In addition, the IC50 (as a rule, the concentration needed to halve the response being measured) in test [2] amounted to 1.54 µM; in test [3] it was 2.28 µM; in [4], 0.835 µM; with Lung (SCLC) LXFS 2156, 3.56 µM; in the test with Colon CXF HCT 116, 4.33 µM; in the test with Breast MAXF 857, 1.56 µM. Further, the IC50 was 1.57 µM in test [6] and 2.78 µM in test [7]. Besides, in the test with A431 cells, the “cellular levels of cleaved caspase-3” value is listed as “increase in cellular levels of cleaved caspase-3”. Further, in test [5] (UVB-exposed SKH-1 mice, Day 50), the “cleaved caspase-3 positive cells (IHC), apoptosis in epidermis” value is on record as “induces apoptosis; also recorded: statistically significant induction of apoptosis”. The “mitotic index in AK regions of the skin (epidermis)” value in [5] (UVB-exposed SKH-1 mice, Day 50, all Formula C treatment groups vs vehicle) is listed as “reduces cell proliferation; also recorded: significantly reduced”. In test [5] (UVB-exposed SKH-1 mice, topical treatment, data not shown), the “epidermal thickness (histopathology)” value was “thinner epidermis”. In test [5] (UVB-exposed mice, 5% Formula C ointment, 50 days of treatment), the “HK2 staining in epidermis (IHC)” value is recorded as “decreases after 50 days; also recorded: HK2 staining levels are low”. Further, the “HK2 protein levels in AK areas (IHC)” value in test [5] (UVB-exposed mice, 2 days of treatment, satellite study) was “dramatic decrease in HK2 protein levels”; in [5] (UVB-exposed mice, one day of treatment, data not shown) it was “did not show this effect”.

The values above are taken from patent US12527782B2, “Use of hexokinase 2/mitochondria-detaching compounds for treating hexokinase-2 (HK2)-expressing cancers” (Vidac Pharma Ltd., priority 2016, dated 2026).
